Reference: patent US20060154954A1, “Combinations and use of selected pharmaceutically active compounds” (ALTANA PHARMA AG, priority 2003, published 2006)

Tested on: gastric lesion
Assay: Gastric lesions after pylorus ligation and oral acetylsalicylic acid in the rat (Shay rat, modified by Okabe)
Assay type: in vivo
Settings: 4 hours after pylorus ligation and oral 100 mg/kg acetylsalicylic acid
[1] = 1.0 μmol/kg intraduodenally, read-out: Reduction of lesion index versus control in %

Compound | inhibition in vivo at 1 µmol/kg [1] [%] | other results
CO[C@H]1c2ccn3c(C)c(C)nc3c2N[C@H](c2ccccc2)[C@H]1O [Example 3, (7S, 8R, 9R)-2,3-dimethyl-8-hydroxy-7-methoxy-9-phenyl-7,8,9,10-tetrahydroimidazo[1,2-h][1,7]naphthyridine] | – | inhibition in vivo at 10 µmol/kg (10.0 μmol/kg intraduodenally, read-out: Reduction of lesion index versus control in %): 100%
COCCO[C@@H]1c2ccn3c(C)c(C)nc3c2N[C@H](c2ccccc2)[C@H]1OC(=O)CN(C)C [Example 10, (7R,8R,9R)-7-(2-methoxyethoxy)-2,3-dimethyl-8-(N,N-dimethylaminomethylcarbonyloxy)-9-phenyl-7,8,9,10-tetrahydroimidazo[1,2-h][1,7]naphthyridine] | 100 | –
Cc1nc2c3c(ccn2c1C)[C@@H](O)[C@@](C)(O)[C@@H](c1ccccc1)N3 [Example 11, (7R,8S,9R)-2,3,8-trimethyl-7,8-dihydroxy-9-phenyl-7,8,9,10-tetrahydroimidazo[1,2-h][1,7]naphthyridine] | 100 | –
CCO[C@H]1c2ccn3c(C)c(C)nc3c2N[C@H](c2ccccc2)[C@H]1O [Example 5, (7S, 8R, 9R)-2,3-dimethyl-7-ethoxy-8-hydroxy-9-phenyl-7,8,9,10-tetrahydroimidazo[1,2-h][1,7]naphthyridine] | 100 | –
COCCO[C@@H]1c2ccn3c(C)c(C)nc3c2N[C@H](c2ccccc2)[C@H]1OC(C)=O [Example 7, (7R,8R,9R)-8-acetoxy-7-(2-methoxyethoxy)-2,3-dimethyl-9-phenyl-7,8,9,10-tetrahydroimidazo[1,2-h][1,7]naphthyridine] | 100 | –
CCO[C@@H]1c2ccn3c(C)c(C)nc3c2N[C@H](c2ccccc2)[C@H]1O [Example 4, (7R, 8R, 9R)-2,3-dimethyl-7-ethoxy-8-hydroxy-9-phenyl-7,8,9,10-tetrahydroimidazo[1,2-h][1,7]naphthyridine] | 100 | –
COCCO[C@@H]1c2ccn3c(Cl)c(C)nc3c2O[C@H](c2ccccc2)[C@@H]1O [Example 17, (7R,8R,9R)-3-chloro-8-hydroxy-7-(2-methoxyethoxy)-2-methyl-9-phenyl-7H-8,9-dihydro-pyrano[2,3-c]imidazo[1,2-a]pyridine] | – | Reduction of lesion index versus control in % (1.0 μmol/kg intraduodenally): 100%
COCCO[C@@H]1c2ccn3c(C)c(C)nc3c2N[C@H](c2ccccc2)[C@H]1OC(=O)OC [Example 9, (7R,8R,9R)-8-methoxycarbonyloxy-7-(2-methoxyethoxy)-2,3-dimethyl-9-phenyl-7,8,9,10-tetrahydroimidazo[1,2-h][1,7]naphthyridine] | 100 | –
COCCO[C@@H]1c2ccn3c(C)c(C)nc3c2N[C@H](c2ccccc2)[C@H]1O [Example 6, (7R, 8R, 9R)-2,3-dimethyl-8-hydroxy-7-(2-methoxyethoxy)-9-phenyl-7,8,9,10-tetrahydroimidazo[1,2-h][1,7]naphthyridine] | 100 | –
COCCO[C@@H]1c2ccn3cc(C)nc3c2N[C@H](c2ccccc2)[C@H]1O [Example 15, (7R,8R,9R)-8-hydroxy-2-methyl-7-(2-methoxyethoxy)-9-phenyl-7,8,9,10-tetrahydroimidazo[1,2-h][1,7]naphthyridine] | – | inhibition in vivo at 6 µmol/kg (6.0 μmol/kg intraduodenally, read-out: Reduction of lesion index versus control in %): 100%
CO[C@@H]1c2ccn3c(C)c(C)nc3c2N[C@H](c2ccccc2)[C@H]1O [Example 2, (7R, 8R, 9R)-2,3-dimethyl-8-hydroxy-7-methoxy-9-phenyl-7,8,9,10-tetrahydroimidazo[1,2-h][1,7]naphthyridine] | 100 | –
COCCO[C@@H]1c2ccn3c(C)c(C)nc3c2N[C@H](c2ccccc2)[C@H]1O [Example 1, (7R,8R,9R)-8-hydroxy-7-(2-methoxyethoxy)-2,3-dimethyl-9-phenyl-7,8,9,10-tetrahydro-imi-dazo[1,2-h][1,7]naphthyridine] | – | Reduction of lesion index versus control in % (3.0 μmol/kg intraduodenally): 100%
COCCO[C@@H]1c2ccn3c(C)c(C)nc3c2N[C@H](c2ccccc2)[C@H]1OC(=O)c1ccccc1 [Example 8, (7R,8R,9R)-8-benzoyloxy-7-(2-methoxyethoxy)-2,3-dimethyl-9-phenyl-7,8,9,10-tetrahydroimidazo[1,2-h][1,7]naphthyridine] | 100 | –
COCCO[C@@H]1c2ccn3c(Cl)c(C)nc3c2N[C@H](c2ccccc2)[C@H]1O [Example 16, (7R,8R,9R)-3-chloro-8-hydroxy-7-(2-methoxyethoxy)-2-methyl-9-phenyl-7.8.9.10-tetrahydroimidazo[1.2-h][1.7]naphthyridine] | – | Reduction of lesion index versus control in % (6.0 μmol/kg intraduodenally): 100%
Cc1nc2c3c(ccn2c1C)[C@@](C)(O)[C@H](O)[C@@H](c1ccccc1)N3 [Example 12, (7R,8R,9R)-2,3,7-trimethyl-7,8-dihydroxy-9-phenyl-7,8,9,10-tetrahydroimidazo[1,2-h][1,7]naphthyridine] | 100 | –
COCCO[C@@H]1c2ccn3c(C)c(C)nc3c2O[C@H](c2ccccc2)[C@@H]1O [Example 13, (7R,8R,9R)-2,3-dimethyl-8-hydroxy-7-(2-methoxyethoxy)-9-phenyl-7H-8,9-dihydropyrano[2,3-c]imidazo[1,2-a]pyridine] | – | Reduction of lesion index versus control in % (1.0 μmol/kg intraduodenally): 100%
CCO[C@@H]1c2ccn3c(C)c(C)nc3c2O[C@H](c2ccccc2)[C@@H]1O [Example 14, (7R,8R,9R)-2,3-dimethyl-8-hydroxy-7-ethoxy-9-phenyl-7H-8,9-dihydropyrano[2,3-c]imidazo[1,2-a]pyridine] | – | Reduction of lesion index versus control in % (1.0 μmol/kg intraduodenally): 100%
